Laboratory results published in patent publication US20260285857A1, “BICYCLIC AND HETEROCYCLIC AMIDE COMPOUNDS” (priority 2024, published 2026).

Test system: immunoglobulin light chain protein WIL-FL T46L
Experiment: Differential scanning fluorimetry (thermal shift) assay
Assay type: binding
Settings: temperature shift [Tm]compound-[Tm]vehicle, recombinant WIL-FL T46L

| SMILES | DSF (Table A) | DSF (Table B) |
| --- | --- | --- |
| Cc1cc(N2CC[C@](C)(c3ccccc3)C2)cn2nc(C(=O)NC(C)(C)CO)nc12 [Compound 153] | ***** (>2.5° C.=*****) | – |
| Cc1cc(N2CC[C@](C)(c3ccccc3)C2)cn2nc(C(=O)N3CC4CN(c5ccnc(C(=O)O)c5)CC4C3)nc12 (stereo partly shown) [Compound 278] | ***** (>2.5° C.=*****) | – |
| CC[C@]1(c2ccccc2)CCN(c2cc(C)c3nc(C45CC(N)(CO4)C5)nn3c2)C1 [Compound 51] | ** (>0.5-1 °C =**) | – |
| Cc1cc(N2CC[C@](C)(c3ccccc3)C2)cn2nc(C(=O)N3C[C@H]4C[C@@H]3C4C(=O)O)nc12 (stereo partly shown) [Compound 210] | ***** (>2.5° C.=*****) | – |
| Cc1cc(N2CC[C@](C)(c3ccccc3)C2)cn2nc(C(=O)N3CCC4(CCN(c5ccc(C#N)c(C(=O)O)n5)C4)C3)nc12 (mixture of isomers) [Compound 609, 3-cyano-6-[2-[8-methyl-6-[rac-(3R)-3-methyl-3-phenyl-pyrrolidin-1-yl]-[1,2,4]triazolo[1,5-a]pyridine-2-carbonyl]-2,7-diazaspiro[4.4]nonan-7-yl]pyridine-2-carboxylic acid] | – | ***** (>2.5° C.=*****) |
| Cc1cc(N2CC[C@](C)(c3ccccc3)C2)cn2nc(C(=O)NC3CC(N4C[C@H](O)[C@@H](O)C4)C3)nc12 (stereo partly shown) [Compound 362] | ***** (>2.5° C.=*****) | – |
| Cc1cc(N2CC[C@](C)(c3ccccc3)C2)cn2nc(C(=O)N3CC(C(=O)O)C4(COC4)C3)nc12 (stereo partly shown) [Compound 603] | – | ***** (>2.5° C.=*****) |
| Cc1cc(N2CC[C@](C)(c3ccccc3)C2)cn2nc(C(=O)NC3CC4(CCN4c4cccc(C(=O)O)n4)C3)nc12 (stereo partly shown) [Compound 667] | – | ***** (>2.5° C.=*****) |
| Cc1cc(N2CC[C@](C)(c3ccccc3)C2)cn2nc(C(=O)NC3CC[C@@]4(CCN(c5cccc(C(=O)O)n5)C4)C3)nc12 (mixture of isomers) [Compound 634, 6-[rac-(5R)-8-[[8-methyl-6-[rac-(3R)-3-methyl-3-phenyl-pyrrolidin-1-yl]-[1,2,4]triazolo[1,5-a]pyridine-2-carbonyl]amino]-2-azaspiro[4.4]nonan-2-yl]pyridine-2-carboxylic acid] | – | ***** (>2.5° C.=*****) |
| Cc1cc(N2CC[C@](C)(c3cccc(F)c3)C2)cn2nc(C(=O)NC3CC4(C3)CC(N3CC5C(C3)C5C(=O)O)C4)nc12 (stereo partly shown) [Compound 384] | ***** (>2.5° C.=*****) | – |
| Cc1cc(N2CC[C@](C)(c3ccccc3)C2)cn2nc(C34CC(N5CC6(CC6C(=O)O)C5)(CO3)C4)nc12 (stereo partly drawn) [Compound 470, 5-[1-[8-methyl-6-[(3R)-3-methyl-3-phenyl-pyrrolidin-1-yl]-[1,2,4]triazolo[1,5-a]pyridin-2-yl]-2-oxabicyclo[2.1.1]hexan-4-yl]-5-azaspiro[2.3]hexane-2-carboxylic acid] | – | ***** (>2.5° C.=*****) |
| Cc1cc(N2CC[C@](C)(c3ccccc3)C2)cn2nc(C34CC(CN)(CO3)C4C(N)=O)nc12 (stereo partly shown) [Compound 44] | ***** (>2.5° C.=*****) | – |
| Cc1cc(N2CC[C@](C)(c3ccccc3)C2)cn2nc(C(=O)N3CCC4(CCN4c4ccnc(C(=O)O)c4)C3)nc12 (stereo partly shown) [Compound 621] | – | ***** (>2.5° C.=*****) |
| Cc1cc(N2CC[C@](C)(c3ccccc3)C2)cn2nc(C34CC(C(=O)NC(C)C)(CO3)C4)nc12 [Compound 443] | – | ***** (>2.5° C.=*****) |
| Cc1cc(N2CC[C@](C)(c3ccccc3)C2)cn2nc(C(=O)NC3CCOC3)nc12 (stereo partly shown) [Compound 118] | ***** (>2.5° C.=*****) | – |
| Cc1cc(N2CC[C@](C)(c3ccccc3)C2)cn2nc(C(=O)NC3CCC(O)(C(F)(F)F)C3)nc12 (stereo partly shown) [Compound 104] | ***** (>2.5° C.=*****) | – |
| Cc1cc(N2CC[C@](C)(c3ccccc3)C2)cn2nc(C(=O)NC3CCN(c4ccnc(C(=O)O)c4)CC3)nc12 [Compound 264] | ***** (>2.5° C.=*****) | – |
| Cc1cccc([C@@]2(C)CCN(c3cc(C)c4nc(C(=O)N5C[C@@H]6CN(c7cccc(C(=O)O)n7)C[C@@H]6C5)nn4c3)C2)c1 [Compound 415] | ***** (>2.5° C.=*****) | – |
| Cc1cc(N2CC[C@](C)(c3ccccc3)C2)cn2nc(C(=O)NC3CCS(=O)(=O)C3)nc12 (stereo partly shown) [Compound 109] | ***** (>2.5° C.=*****) | – |
